In US6087376A (priority 1998, dated 2000):
Values joined by “and” are separate entries in the source; they are usually repeats but may differ in a detail not shown here. Equal entries are not always repeated. “Also recorded” adds a separate entry of the source.

Key:
rat striatum = test: Striatal DA and DOPAC content after in vivo administration of lobeline
Text: Male Sprague-Dawley rats (200-250 g) were obtained from Harlan Laboratories (Indianapolis, Ind.) and were housed two per cage with free access to food and water in the Division of Lab Animal Resources at the College of Pharmacy at the University of Kentucky. Experimental protocols involving the animals were in strict accordance with the NIH Guide for the Care and Use of Laboratory Animals and were approved by the Institutional Animal Care and Use Committee at the University of Kentucky.
Rats were killed 24 hrs after the last injection and striata were obtained immediately for determination of endogenous DA and DOPAC content. […] Striata were obtained for endogenous DA and DOPAC content determination 21 days after osmotic minipump implantation. Lobeline dose was expressed in terms of mg of lobeline hemisulfate salt per kg body weight.
An aliquot (500 μL) of 0.1 M perchloric acid (pH 1.0) containing 0.14-0.29 μM 3,4-dihydroxybenzylamine hydrobromide (DHBA, internal standard) was added to 100 mg of striatum and the mixture was sonicated with an Ultrasonic Processor (40-Watt Model, Sonics & Materials, Danbury, Conn.). The homogenate was centrifuged at 30,000×g for 10 min at 4° C., and the supernatant was filtered (0.2 μm nylon membrane). An aliquot (50 μL) of the filtrate (1:1, 1:50, 1:100, 1:200 or 1:500 dilution with 0.1 M perchloric acid) was injected onto the high pressure liquid chromatograph with electrochemical detection (HPLC-EC) system. The HPLC-EC system consisted of syringe loading injector (Model 7725, Rheodyne L. P., Cotati, Calif.), Beckman Model 116 HPLC pump (Beckman, Fullerton, Calif.), ESA ODS ultrasphere C18 reverse-phase column ([…]×75 mm, 3 micron particle size, ESA, Bedford, Mass.), and an ESA 5100A coulometric electrochemical detector with a model 5011 detector cell (E1=+0.05 V, E2=+0.32 V). The eluent was 6% acetonitrile, 10 μM EDTA, 1.4 mM 1-octane-sulfonic acid and 76 mM sodium phosphate monobasic (pH 3.1). All separations were performed at room temperature at a flow rate of 1 ml/min. Complete separation of DA and DOPAC and reequilibration of the system required 9 min. The retention time of DA, DOPAC and DHBA standards was used to identify the relevant peak. Peak heights were used to calculate the detected amount of compound based on standard curves. The detection limit of DA and DOPAC was 0.2 and 0.05 pg/50 μL injected, respectively. Recovery of internal standard was routinely 75%.

[1] = system: rat striatal synaptic vesicles; test: [3H]DA release from striatal synaptic vesicles preloaded with [3H]DA; format: biochemical
Protocol: The homogenate was then centrifuged at 2,000×g for 10 min at 4° C. and the resulting supernatant was centrifuged at 10,000×g for 30 min at 4° C. Synaptosomes (buffy coat) were separated from the underlying mitochondria and cellular debris (reddish pellet) by gentle swirling in 2 mL of 0.32 M sucrose. The enriched synaptosome fraction (2.0 mL) was subjected to osmotic shock by addition of 7 mL distilled H2 0 and was homogenized with 5 up and down strokes of the TEFLON pestle. The osmolarity was restored by the addition of 900 μL of 0.25 M HEPES and 900 μL of 1.0 M neutral potassium-tatrate buffer (pH 7.5) followed by a 20 min centrifugation (20,000×g at 4° C.). The supernatant was then centrifuged for 60 min (55,000×g at 4° C.).
The final vesicle pellet from a pool of striata from three rats was resuspended in 3 mL of release assay buffer (in mM: 25 HEPES, 100 L-(+)-tartaric acid dipotassium salt, 0.05 EGTA, 0.10 EDTA, 2 Mg^2+ -ATP, and 1.7 ascorbic acid, pH 7.4) and then incubated with [^3 H]DA (0.3 μM) for 8 min at 37° C. […] [^3 H]DA efflux represents the net result of events, i.e., release and reuptake. […] The reaction was terminated by addition of 2.5 mL of ice-cold assay buffer containing 2 mM MgSO4. Samples were rapidly filtered through Whatman GF/F filters using the Brandel cell harvester.
The amount of drug-induced [^3 H]DA release from synaptic vesicles was calculated by subtracting the amount of tritium remaining in the drug-exposed samples from that remaining in the control samples (in the absence of drug). The amount of drug-induced [^3 H]DA release was then divided by the amount of tritium remaining in the control samples and was expressed as a percentage of control.
Concentration-response and kinetic data were analyzed by repeated-measures one-way ANOVA and between-group one-way ANOVA, respectively. When appropriate, Fisher's least significant difference post hoc test was used to determine significant differences between treatment means. IC50 and EC50 values were obtained by an iterative nonlinear least-squarescurve-fitting program (GraphPAD-PRIZM: GraphPAD, San Diego, Calif., U.S.A.) for one-site competition and sigmoidal concentration response, respectively. The t1/2 was obtained by an iterative nonlinear least-squares curve-fitting program for one-phase decay. KD and Bmax values were obtained by Scatchard analysis using an iterative linear least-squares curve-fitting program.

[2] = system: rat striatal slices preloaded with [3H]DA; test: Mecamylamine antagonism of lobeline-evoked [3H]overflow from rat striatal slices; format: cell-based; parameters: lobeline-evoked total [3H]overflow: unit not given here
[3] = system: conditioned place preference in rats; settings: rat, in vivo; cited from earlier work
[4] = system: tobacco smoking cessation; settings: short-term use as smoking deterrent; cited from earlier work
[5] = system: rat striatal synaptosomes; settings: cited from earlier work
monoamine oxidase = settings: cited from earlier work
[6] = chronic, 30 mg/kg/day s.c. osmotic minipump, 21 days
[7] = intermittent, 3 mg/kg s.c. once daily for 10 days
[8] = intermittent, 10 mg/kg s.c. once daily for 10 days

With `CN1[C@@H](CC(=O)c2ccccc2)CCC[C@H]1C[C@H](O)c1ccccc1` [Lobeline, 2-[G-(β-hydroxyphenethyl)-1-methyl-2-piperidyl]-acetophenone] the “striatal DA content” value (rat striatum; acute, 1 mg/kg s.c., 1 hr) was 756 ± 111 ng/mg protein, the “striatal DOPAC content” value (rat striatum; acute, 1 mg/kg s.c., 1 hr) was 81 ± 12 ng/mg protein and the “striatal DA content” value (rat striatum; acute, 3 mg/kg s.c., 1 hr) was 761 ± 103 ng/mg protein. For the same molecule, the “striatal DOPAC content” value (rat striatum; acute, 3 mg/kg s.c., 1 hr) was 89 ± 15 ng/mg protein, the “striatal DA content” value (rat striatum; acute, 10 mg/kg s.c., 1 hr) was 841 ± 76 ng/mg protein and the “striatal DOPAC content” value (rat striatum; acute, 10 mg/kg s.c., 1 hr) was 82 ± 8 ng/mg protein. For the same molecule, the “striatal DA content” value (rat striatum; acute, 30 mg/kg s.c., 1 hr) was 665 ± 126 ng/mg protein, the “striatal DOPAC content” value (rat striatum; acute, 30 mg/kg s.c., 1 hr) was 72 ± 10 ng/mg protein and the “effect on striatal DA or DOPAC content in vivo” value (rat striatum; any dose or treatment regimen) was “did not significantly alter”. For the same molecule, the “striatal DA content” value (rat striatum; [6]) was 856 ± 144 ng/mg protein, the “striatal DOPAC content” value (rat striatum; [6]) was 62 ± 10 ng/mg protein and the “striatal DA content” value (rat striatum; [7]) was 778 ± 27 ng/mg protein. For the same molecule, the “striatal DOPAC content” value (rat striatum; [7]) was 57 ± 12 ng/mg protein, the “striatal DA content” value (rat striatum; [8]) was 800 ± 41 ng/mg protein and the “striatal DOPAC content” value (rat striatum; [8]) was 57 ± 3 ng/mg protein. The “lowest concentration to evoke [3H]DA release from vesicles” value ([1]; 8 min, 37° C.) was 10 µM, the EC50 ([1]; 8 min, 37° C., read-out: EC50, evoked [3H]DA release from synaptic vesicles) was 25.3 µM and 25 µM and the “t1/2 of [3H]DA efflux from vesicles” value ([1]; drug at 10 times the EC50) was 1.58 ± 0.09 min. The “lobeline-evoked total [3H]overflow” value ([2]; lobeline 0.1 μM, mecamylamine 0 μM) was 0.6 ± 0.4, the “lobeline-evoked total [3H]overflow” value ([2]; lobeline 0.1 μM, mecamylamine 1 μM) was 0.9 ± 0.5 and the “lobeline-evoked total [3H]overflow” value ([2]; lobeline 0.1 μM, mecamylamine 10 μM) was 0.8 ± 0.3. For the same molecule, the “lobeline-evoked total [3H]overflow” value ([2]; lobeline 0.1 μM, mecamylamine 100 μM) was 0.5 ± 0.4, the “lobeline-evoked total [3H]overflow” value ([2]; lobeline 1 μM, mecamylamine 0 μM) was 2.0 ± 0.6 and the “lobeline-evoked total [3H]overflow” value ([2]; lobeline 1 μM, mecamylamine 1 μM) was 4.9 ± 1.8. The “lobeline-evoked total [3H]overflow” value ([2]; lobeline 1 μM, mecamylamine 10 μM) was 2.4 ± 0.5, the “lobeline-evoked total [3H]overflow” value ([2]; lobeline 1 μM, mecamylamine 100 μM) was 0.7 ± 0.1 and the “lobeline-evoked total [3H]overflow” value ([2]; lobeline 3 μM, mecamylamine 0 μM) was 10.3 ± 0.8. The “lobeline-evoked total [3H]overflow” value ([2]; lobeline 3 μM, mecamylamine 1 μM) was 10.8 ± 1.4, the “lobeline-evoked total [3H]overflow” value ([2]; lobeline 3 μM, mecamylamine 10 μM) was 8.2 ± 1.5 and the “lobeline-evoked total [3H]overflow” value ([2]; lobeline 3 μM, mecamylamine 100 μM) was 6.5 ± 0.9. For the same molecule, the “lobeline-evoked total [3H]overflow” value ([2]; lobeline 10 μM, mecamylamine 0 μM) was 31.9 ± 2.2, the “lobeline-evoked total [3H]overflow” value ([2]; lobeline 10 μM, mecamylamine 1 μM) was 32.5 ± 1.0 and the “lobeline-evoked total [3H]overflow” value ([2]; lobeline 10 μM, mecamylamine 10 μM) was 41.0 ± 6.2. The “lobeline-evoked total [3H]overflow” value ([2]; lobeline 10 μM, mecamylamine 100 μM) was 20.0 ± 2.0, the “lobeline-evoked total [3H]overflow” value ([2]; lobeline 100 μM, mecamylamine 0 μM) was 185.0 ± 12 and the “lobeline-evoked total [3H]overflow” value ([2]; lobeline 100 μM, mecamylamine 1 μM) was 180.0 ± 47.6. For the same molecule, the “lobeline-evoked total [3H]overflow” value ([2]; lobeline 100 μM, mecamylamine 10 μM) was 179.5 ± 12.2, the “lobeline-evoked total [3H]overflow” value ([2]; lobeline 100 μM, mecamylamine 100 μM) was 160.4 ± 30.2 and the “inhibition of lobeline-evoked [3H]overflow by mecamylamine” value ([2]; mecamylamine 1-100 μM, lobeline 0.1-100 μM) was “not inhibited by mecamylamine”. The conditioned place preference [3] was “does not produce conditioned place preference; also recorded: does not increase locomotor activity (Stolerman et al., 1995) or produce conditioned place preference”, the acute toxicity [4] was “nausea, severe heartburn and dizziness” and the “DA release from superfused striatal synaptosomes” value [5] was “increase DA release”. For the same molecule, the “inhibition of monoamine oxidase” value (monoamine oxidase) was “does not inhibit monoamine oxidase”.
